Test results reported in patent US20140045824A1, “METHOD FOR PRODUCING COMPLEX CRYSTAL AND METHOD FOR SCREENING COMPLEX CRYSTAL” (priority 2011, published 2014).

Test: Cocrystal formation with 1-menthol under humidified condition (Example 3)
Assay type: physicochemical
Design: key: A cocrystal was completely formed.; B: A mixture of a cocrystal and the host compound or guest compound was formed.; C: A cocrystal was not formed (a mixture of the host compound and the guest compound was formed)
Settings: host theophylline, 1-menthol added, 80° C. and 90% RH
Protocol: About 30 mg (0.167 mmoles) of theophylline and about 29 mg (0.167 mmoles) of L(+)-arginine were weighed and mixed using an agate mortar. […] 15 mg of this mixed powder was weighed and put into a test tube, to which was then added 15 mg of 1-menthol which had been grinded using an agate mortar, followed by vigorously stirring for one minute using a vortex mixer. Thereafter, the obtained mixture of theophylline, L(+)-arginine, and 1-menthol was heated for 6 and 21 hours, respectively in a thermo-hygrostat at 80° C. and 90% RH, and the obtained solids were subjected to powder X-ray diffraction measurement and thermal analysis.

N=C(N)NCCC[C@H](N)C(=O)O [L(+)-Arginine]
Cocrystal formation, Example 3, Heating for 6 hours (6 hours): A | Cocrystal formation, Example 3, Heating for 21 hours (21 hours): A
